In US20250312332A1, “TREATMENT OF MUSCLE FIBROSIS” (University of Newcastle upon Tyne, priority 2022, published 2025):
“And” between values parts separate entries of the source, which are not always exact repeats. Identical values can stand only once. “Also recorded” adds a separate entry of the source. Like-named read-outs stand apart in the source and are kept apart here.

Assays:
[1] = test system: RhoA-GTP; type: cell-based, human; settings: DMD-FAPs, PDGF-AA 50 ng/ml 20 min, vs untreated FAPs
[2] = test system: myosin light chain 2 (p-MLC2); type: cell-based, human
[3] = test system: FAPs; type: cell-based, human
[4] = test system: FAPs; type: cell-based, human; settings: for increase in FAPs proliferation: vs untreated FAPs
[5] = test system: FAPs; type: cell-based, human; settings: for increase in FAPs migration: vs untreated FAPs
[6] = test system: FAPs; type: cell-based, human; remark: listed apart in the source
[7] = test system: FAPs
[8] = test system: dba/2J-mdx mice; assay: Fasudil treatment of dba/2J-mdx mice: behaviour and weight; settings: mouse, in vivo
[9] = test system: RhoA pathway; assay: RhoA downstream effectors in quadriceps of dba/2J-mdx mice (qPCR, IF); type: in vivo, mouse
[10] = test system: dba/2J-mdx mice; assay: Grip strength test in dba/2J-mdx mice; type: in vivo, mouse; settings: after six weeks of treatment, vs non-treated mice
[11] = test system: dba/2J-mdx mice; assay: Quadriceps histology and immunofluorescence in dba/2J-mdx mice; type: in vivo, mouse
[12] = test system: dba/2J-mdx mice; assay: Flow cytometry of muscle macrophages in dba/2J-mdx mice; type: in vivo, mouse
[13] = test system: dba/2J-mdx mice; assay: Cytokine array of quadriceps in dba/2J-mdx mice; type: in vivo, mouse; settings: treated vs non-treated mice

PDGF-AA
increase in the RhoA-GTP levels [1]: 1.88 fold
increase in MLC2 phosphorylation ([2]; DMD-FAPs treated with PDGF-AA): 2.3 fold
polymerization of intracellular actin filaments [3]: induced polymerization
increase in FAPs proliferation ([4]; 48 hours): 3.6 fold
increase in FAPs proliferation ([4]; 72 hours): 6 fold
increase in FAPs migration ([5]; 48 hours): 2.48 fold
increase in FAPs migration ([5]; 72 hours): 3.37 fold
release of collagen-I to the culture medium ([6]; 4 days treatment): increased non-significantly
cell viability [7]: did not affect cell viability

O=S(=O)(c1cccc2cnccc12)N1CCCNCC1 [Fasudil, 5-(1,4-diazepan-1-ylsulfonyl)isoquinoline]
effect on PDGF-AA-induced MLC2 phosphorylation [2]: reversed
polymerization of intracellular actin filaments [3]: impinged
decrease in proliferation rate [4]: 2.6 fold
proliferation inhibition [4]: lack of proliferation inhibition
reduction of migration rate [5]: 2.43 fold and 4 fold
release of collagen-I to the culture medium [6]: reversed
behaviour during the treatment period (adverse effects) [8]: did not experience any change in their behaviour
body weight, treated vs untreated mice [8]: decrease in weight
RhoA pathway downstream effector targets (ROCK2, LIMK2, FHOD1) ([9]; 100 mg/kg/day orally 6 weeks): inhibited RhoA pathway
protein expression of LIMK2 ([9]; treated vs untreated mice): significantly reduced
protein expression of MLC2 ([9]; treated vs untreated mice): significantly reduced
increase in forelimb strength [10]: 1.76 fold
reduction in collagen-I area in the quadriceps ([11]; 100 mg/kg/day orally 6 weeks): 23%
myofiber size ([11]; treated vs non-treated mice): significant increase
neutrophil population in quadriceps ([11]; treated vs non-treated mice): trend towards a reduction
number of T and B cells in quadriceps ([11]; treated vs non-treated mice): no changes
decrease in the PDGFRα area (number of FAPs) in quadriceps ([11]; treated vs non-treated, not significant): 42%
reduction of quadriceps area stained with F4/80 (macrophages) ([11]; treated vs untreated mice): 74%
decrease in the number of F4/80 positive cells ([12]; flow cytometry, treated vs non-treated mice): 18.3%
reduction in the expression levels of CD163 marker in macrophages ([12]; skeletal muscles of treated mice): 31%
reduction in the expression levels of CD206 marker in macrophages ([12]; treated mice): 18%
expression levels or number of CD209 cells (M2 macrophages) ([12]; treated vs non-treated mice): did not observe any difference
percentage of positive cells or expression of CD80 and DR (M1 markers) ([12]; treated vs non-treated mice): did not observe changes
lower number of CD163+ cells ([12]; vs non-treated mice): 3%
lower number of CD206+ cells ([12]; vs non-treated mice): 10%
TNFα, IL-4, IL-17, CXCL1, CXCL2, CXCL10, CCL2, CCL3 or CCL17 cytokine levels [13]: reduction
cell viability [7]: did not affect cell viability; also recorded: neither C3-exoenzyme nor fasudil had any effect on cell viability
